From ChEMBL document CHEMBL1140962, “An efficient tool for identifying inhibitors based on 3D-QSAR and docking using feature-shape pharmacophore of biologically active conformation--a case study with CDK2/cyclinA” (Eur J Med Chem, 2008) come the findings set out here.

Molecules are shown by their SMILES. Bounds are passed on as bounds.

For the assay, the target named is Cyclin-dependent kinase 2 (Homo sapiens, UniProt P24941). As to the kind of experiment: Inhibition of CDK2/Cyclin A.

Take `O=C(Nc1cc(C2CC2)[nH]n1)c1c(Cl)cccc1Cl`: the IC50 (read-out: IC50) was over 10000 nM. Consider `O=C(Cc1ccc(-c2ccccc2)c(F)c1)Nc1cc(C2CC2)n[nH]1`, for which the IC50 was 4 nM (read-out: IC50) and 4 nM (read-out: pIC50 (converted)). In the case of `O=C(Nc1cc(C2CC2)[nH]n1)c1ccccc1Cl`, the IC50 (read-out: IC50) is 10000 nM. Turning to `CO[C@@H](C(=O)Nc1cc(C2CC2)n[nH]1)c1ccccc1`, the IC50 (read-out: IC50) is over 10000 nM. On the same count and under the same terms, as for `O=C(Nc1cc(-c2ccccc2)[nH]n1)c1ccc(Br)cc1`, the figure is over 10000 nM; as for `CCCC(=O)Nc1cc(C)[nH]n1`, over 10000 nM; as for `O=C(Nc1cc(Cc2ccccc2)[nH]n1)c1ccc(Br)cc1`, over 10000 nM. Consider `Cc1cc(CC(=O)Nc2cc(C3CC3)[nH]n2)ccc1-c1ccccc1`, for which the IC50 is 9 nM (read-out: IC50) and 8.99 nM (read-out: pIC50 (converted)).

Consider `CC(C)(C)c1cc(NC(=O)c2ccc(Br)cc2)n[nH]1`, for which, where the note is “read-out: IC50”, the IC50 is over 10000 nM. On to `O=C(Nc1cc(C2CCCCC2)[nH]n1)c1ccc(Br)cc1`, for which the IC50 (read-out: IC50) came to 10000 nM. Same read-out and setting: next, `COc1ccccc1C(=O)Nc1cc(C2CC2)[nH]n1`: over 10000 nM.

`O=C(Cc1ccc(Cc2cccs2)cc1)Nc1cc(C2CC2)n[nH]1`: the IC50 (read-out: IC50) was 3 nM and the IC50 (read-out: pIC50 (converted)) is 3 nM.
